Measurements taken from patent publication US8362000B2, “Azetidinyl diamides as monoacylglycerol lipase inhibitors” (Janssen Pharmaceutica NV, priority 2009, dated 2013).
Changes are numbered by the printed parent chain. Like-named read-outs stand apart in the source and are kept apart here.

What was measured:
mutant MGL = biological target: T1, mutant MGL (Homo sapiens, UniProt Q99685, L169S/L176S); test: MGL ThermoFluor assay - mutant; type: binding
T1 sequence (Q99685 1-303 L169S/L176S): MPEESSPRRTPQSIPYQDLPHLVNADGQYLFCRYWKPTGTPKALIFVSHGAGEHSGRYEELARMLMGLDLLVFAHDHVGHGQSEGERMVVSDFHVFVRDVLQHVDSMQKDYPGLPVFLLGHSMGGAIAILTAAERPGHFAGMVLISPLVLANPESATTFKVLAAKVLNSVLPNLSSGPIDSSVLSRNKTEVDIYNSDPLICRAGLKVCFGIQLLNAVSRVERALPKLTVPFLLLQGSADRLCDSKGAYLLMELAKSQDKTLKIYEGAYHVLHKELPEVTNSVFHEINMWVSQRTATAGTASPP
Experimental: The ThermoFluor (TF) assay is a 384-well plate-based binding assay that measures thermal stability of proteins^1,2. […] TF dye used in all experiments was 1,8-ANS (Invitrogen: A-47). Final TF assay conditions used for MGL studies were 0.07 mg/ml of mutant MGL, 100 μM ANS, 200 mM NaCl, 0.001% Tween-20 in 50 mM PIPES (pH=7.0).
Screening compound plates contained 100% DMSO compound solutions at a single concentration. […] Columns 12 and 24 were used as DMSO reference and contained no compound. […] Following compound dispension, protein and dye solutions were added to achieve the final assay volume of 3 μL.
Bar-coded assay plates were robotically loaded onto a thermostatically controlled PCR-type thermal block and then heated from 40 to 90° C. degrees at a ramp-rate of 1° C./min for all experiments. Fluorescence was measured by continuous illumination with UV light (Hamamatsu LC6), supplied via fiber optics and filtered through a band-pass filter (380-400 nm; >60D cutoff). Fluorescence emission of the entire 384-well plate was detected by measuring light intensity using a CCD camera (Sensys, Roper Scientific) filtered to detect 500±25 nm, resulting in simultaneous and independent readings of all 384 wells. A single image with 20-sec exposure time was collected at each temperature, and the sum of the pixel intensity in a given area of the assay plate was recorded vs temperature and fit to standard equations to yield the Tm^1. • 1.
For some experiments, quantitative NMR spectroscopy (qNMR) was used to measure concentration of the initial 100% DMSO compound solutions and, using the same fitting method, qKd values were determined

MGL = biological target: T2, MGL (Rattus norvegicus, UniProt Q8R431); test: 2-AG accumulation assay in rat brain homogenate; type: biochemical; details: rat brain homogenate, 2-AG accumulation as percent of vehicle; for 2-AG accumulation, % of vehicle control at 0.1 µM: compound 0.1 μM, read-out: Rat Brain 2AG % VehCntrl (%) @ 0.1 μM; for 2-AG accumulation, % of vehicle control at 1 µM: read-out: Rat Brain 2AG % VehCntrl (%) @ 1 μM; for 2-AG accumulation, % of vehicle control at 10 µM: compound 10 μM, read-out: Rat Brain 2AG % VehCntrl (%) @ 10 μM
T2 construct: one g rat brain was homogenized using a Polytron homogenizer; from tissue; host or cells: rat brain homogenate
T2 sequence (Q8R431 1-303): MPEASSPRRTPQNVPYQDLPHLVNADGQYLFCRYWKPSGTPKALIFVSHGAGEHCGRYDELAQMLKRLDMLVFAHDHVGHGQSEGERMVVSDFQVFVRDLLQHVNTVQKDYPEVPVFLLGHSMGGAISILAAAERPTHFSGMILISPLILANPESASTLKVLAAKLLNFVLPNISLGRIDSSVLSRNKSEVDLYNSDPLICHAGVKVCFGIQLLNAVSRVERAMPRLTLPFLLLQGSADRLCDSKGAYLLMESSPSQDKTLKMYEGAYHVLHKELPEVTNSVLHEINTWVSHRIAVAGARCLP

[1] = biological target: T3, purified wild type MGL (wt-MGLL 6H-11-313) (Homo sapiens, UniProt Q99685)
T3 sequence (Q99685 1-303): T1 sequence (Q99685 1-303 L169S/L176S) with S169L, S176L

[2] = system: CFA-induced paw radiant heat hypersensitivity; test: CFA-induced paw radiant heat hypersensitivity; type: in vivo, rat; details: 30 mg/kg p.o., HPβCD, last time point 180 or 300 min; for inhibition in vivo at 30 mg/kg: Rattus norvegicus, po
[3] = ThermoFluor concentration-response, read-out: MGL mutant ThermoFluor Kd
[4] = group mean values, read-out: CFA thermal hypersensitivity Method 1: peak % reversal
[5] = individual animal values, read-out: CFA thermal hypersensitivity Method 2: peak % reversal
[6] = ThermoFluor thermal stability binding assay, read-out: MGL mutant ThermoFluor Kd

Kd (mutant MGL; [3]) [µM]	2-AG accumulation, % of vehicle control at 0.1 µM (MGL) [%]	2-AG accumulation, % of vehicle control at 1 µM (MGL; compound 1 μM) [%]	2-AG accumulation, % of vehicle control at 10 µM (MGL) [%]	IC50 [1] [µM]	2-AG accumulation, % of vehicle control at 0.01 µM (MGL; compound 0.01 μM, read-out: Rat Brain 2AG % VehCntrl (%) @ 0.01 μM) [%]	Kd (mutant MGL; [6]) [µM]	Kd (mutant MGL; ThermoFluor, compound concentration measured by qNMR, read-out: MGL mutant ThermoFluor qKd (μM) (using qNMR conc.)) [µM]	SMILES	inhibition in vivo at 30 mg/kg [2, 4] [%]	inhibition in vivo at 30 mg/kg [2, 5] [%]	Kd (mutant MGL; MGL mutant ThermoFluor Kd, ThermoFluor concentration-response) [µM]	Kd (mutant MGL; MGL mutant ThermoFluor qKd (using qNMR conc.), compound concentration measured by qNMR) [µM]	Rat Brain 2AG % VehCntrl (%) @ 1 μM (MGL; compound 1 μM) [%]	CFA thermal hypersensitivity Method 1: peak % reversal ([2]; group mean values) [%]
0.063	117	204	456	0.014				O=C(c1cscn1)N1CCN(C2CN(C(=O)c3ccc(-c4ccccc4)cc3F)C2)CC1 [Cpd 1108, 1-{1-[(3-Fluorobiphenyl-4-yl)carbonyl]azetidin-3-yl}-4-(1,3-thiazol-4-ylcarbonyl)piperazine]	84.9	99.2				
		395		0.0498		0.016		O=C(c1cscn1)N1CCN(C2CN(C(=O)c3ccc(-c4ccc(Cl)c(C(F)(F)F)c4)cc3Cl)C2)CC1 [Cpd 266, 1-(1-{[3,4′-Dichloro-3′-(trifluoromethyl)biphenyl-4-yl]carbonyl}azetidin-3-yl)-4-(1,3-thiazol-4-ylcarbonyl)piperazine]	50.5	56.1				
	219	248	681	0.382		0.321		Cc1cc(-c2ccccc2)ccc1C(=O)N1CC(N2CCN(C(=O)c3cscn3)CC2)C1 [Cpd 488, 1-{1-[(3-Methylbiphenyl-4-yl)carbonyl]azetidin-3-yl}-4-(1,3-thiazol-4-ylcarbonyl)piperazine]	78	85.5				

The next lines start with the compound.

SMILES	Kd (mutant MGL; [3]) [µM]	2-AG accumulation, % of vehicle control at 0.1 µM (MGL) [%]	2-AG accumulation, % of vehicle control at 1 µM (MGL; compound 1 μM) [%]	2-AG accumulation, % of vehicle control at 10 µM (MGL) [%]	IC50 [1] [µM]	2-AG accumulation, % of vehicle control at 0.01 µM (MGL; compound 0.01 μM, read-out: Rat Brain 2AG % VehCntrl (%) @ 0.01 μM) [%]	Kd (mutant MGL; [6]) [µM]	Kd (mutant MGL; ThermoFluor, compound concentration measured by qNMR, read-out: MGL mutant ThermoFluor qKd (μM) (using qNMR conc.)) [µM]	inhibition in vivo at 30 mg/kg [2, 4] [%]	inhibition in vivo at 30 mg/kg [2, 5] [%]	Kd (mutant MGL; MGL mutant ThermoFluor Kd, ThermoFluor concentration-response) [µM]	Kd (mutant MGL; MGL mutant ThermoFluor qKd (using qNMR conc.), compound concentration measured by qNMR) [µM]	Rat Brain 2AG % VehCntrl (%) @ 1 μM (MGL; compound 1 μM) [%]	CFA thermal hypersensitivity Method 1: peak % reversal ([2]; group mean values) [%]
C/C(=C\c1ccc(Cl)cc1)c1c(C)c(C(=O)N2CC(N3CCN(C(=O)c4nccs4)CC3)C2)nn1-c1ccc(Cl)cc1Cl [Cpd 1010]					< 0.005						0.017	0.04	1953	23.4
Cc1nc(-c2cccc(Cl)c2)sc1C(=O)N1CC(N2CCN(C(=O)c3nccs3)CC2)C1 [Cpd 490, 1-(1-{[2-(3-Chlorophenyl)-4-methyl-1,3-thiazol-5-yl]carbonyl}azetidin-3-yl)-4-(1,3-thiazol-2-ylcarbonyl)piperazine]	0.0084	343	756	886	0.0223	208			18.4	19.7				
O=C(c1cccc(-c2cccc(F)c2)c1)N1CC(N2CCN(C(=O)c3nccs3)CC2)C1 [Cpd 1124]	0.25		506		0.019				88.1					
O=C(c1ccc2c(ccn2-c2ccc(C(F)(F)F)cc2)c1)N1CCN(C2CN(C(=O)c3nccs3)C2)CC1 [Cpd 1338, 5-({4-[1-(1,3-Thiazol-2-ylcarbonyl)azetidin-3-yl]piperazin-1-yl}carbonyl)-1-[4-(trifluoromethyl)phenyl]-1H-indole]	0.015		877		< 0.005				86.3					
O=C(c1nccs1)N1CCN(C2CN(C(=O)c3sc4cc(C(F)(F)F)c(F)cc4c3Cl)C2)CC1 [Cpd 900]			543		< 0.005		0.001	0.001	8.5					
Cc1nc(-c2cccc(C(F)(F)F)c2)sc1C(=O)N1CC(N2CCN(C(=O)c3cscn3)CC2)C1 [Cpd 485, 1-[1-({4-Methyl-2-[3-(trifluoromethyl)phenyl]-1,3-thiazol-5-yl}carbonyl)azetidin-3-yl]-4-(1,3-thiazol-4-ylcarbonyl)piperazine]	0.0257	208	396	818	0.102				34.4	32.3				
O=C(c1ccc(-c2ccccc2)cc1)N1CC(N2CCN(C(=O)c3cscn3)CC2)C1 [Cpd 7, 1-[1-(Biphenyl-4-ylcarbonyl)azetidin-3-yl]-4-(1,3-thiazol-4-ylcarbonyl)piperazine]	0.0466	216	238	568	0.131				77.8	76.2				
